Measurements reported in the NIST ThermoML archive (doi:10.1021/acs.jced.9b00327).

Legend:
[1] = 100 kPa, Liquid, Single path-length method
[2] = mn = molality of the nth substance listed, in mol/kg; conditions: 100 kPa, Liquid; for speed of sound: Single path-length method; for mass density: Vibrating tube method

O [water]
[1]
Conditions	speed of sound [m/s]
313.15 K	1528.9
318.15 K	1536.5

Cn1c(=O)c2c(ncn2C)n(C)c1=O [caffeine] + O
[2]
Conditions	mass density, m1 = 0.005 [kg/m3]	mass density, m1 = 0.01 [kg/m3]	mass density, m1 = 0.02 [kg/m3]	mass density, m1 = 0.04 [kg/m3]	mass density, m1 = 0.06 [kg/m3]	speed of sound, m1 = 0.005 [m/s]	speed of sound, m1 = 0.01 [m/s]	speed of sound, m1 = 0.02 [m/s]	speed of sound, m1 = 0.04 [m/s]	speed of sound, m1 = 0.06 [m/s]
293.15 K	998.731	998.986	999.492	1000.68	1001.78	1483	1483.5	1484	1485.1	1486.2
298.15 K	997.275	997.549	998.082	999.091	1000.02	1497.2	1497.6	1498	1499	1500.1
303.15 K	996.169	996.422	996.912	997.986	999.147	1509.5	1509.8	1510.3	1511.2	1512.1
308.15 K	994.279	994.556	995.092	996.095	997.015	1520.1	1520.4	1520.8	1521.6	1522.4
313.15 K	992.732	992.974	993.452	994.51	995.632	1529.1	1529.4	1529.8	1530.4	1531.2
318.15 K	990.833	990.981	991.327	992.156	992.958	1536.7	1537	1537.2	1537.8	1538.5
